Test results: patent US9695155B2, “Herbicidal substituted pyrimidinyloxy benzene compounds” (E. I. DU PONT DE NEMOURS AND COMPANY, priority 2013, dated 2017)

What was measured:
blackgrass = experiment: Test D preemergence; type: in vivo, Alopecurus myosuroides; conditions: Alopecurus myosuroides, pre-emergence; for pest or weed control at 16 g/ha: 16 g ai/ha, scale 0 (no effect) to 100 (complete control), read-out: Plant response rating, Blackgrass; for pest or weed control at 31 g/ha: 31 g ai/ha; for pest or weed control at 62 g/ha: 62 g ai/ha; for pest or weed control at 125 g/ha: 125 g ai/ha
Procedure, shortened: (§1)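 In a controlled growth environment, treated and control plants were held 7 to 21 days, then compared visually. Damage was scored 0–100, where 100 means complete control. Sprays contained surfactant in a non-phytotoxic solvent; post-applied plants were at the 1- to 4-leaf stage.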

chickweed = experiment: Test D preemergence; type: in vivo, Stellaria media; conditions: Stellaria media, pre-emergence; for pest or weed control at 125 g/ha: 125 g ai/ha
Procedure, shortened: as §1

bromegrass, downy = experiment: Test D preemergence; type: in vivo, Bromus tectorum; conditions: Bromus tectorum, pre-emergence; for pest or weed control at 16 g/ha: 16 g ai/ha, scale 0 (no effect) to 100 (complete control), read-out: Plant response rating, Bromegrass, Downy; for pest or weed control at 31 g/ha: 31 g ai/ha; for pest or weed control at 62 g/ha: 62 g ai/ha; for pest or weed control at 125 g/ha: 125 g ai/ha
Procedure, shortened: as §1

Italian ryegrass = experiment: Test D preemergence; type: in vivo, Lolium multiflorum; conditions: Lolium multiflorum, pre-emergence; for pest or weed control at 16 g/ha: 16 g ai/ha; for pest or weed control at 16 g/ha / pest or weed control at 31 g/ha: scale 0 (no effect) to 100 (complete control), read-out: Plant response rating, Ryegrass, Italian; for pest or weed control at 31 g/ha: 31 g ai/ha; for pest or weed control at 62 g/ha: 62 g ai/ha; for pest or weed control at 125 g/ha: 125 g ai/ha
Procedure, shortened: as §1

spring barley = experiment: Test D preemergence; type: in vivo, Hordeum vulgare; conditions: Hordeum vulgare, pre-emergence; for plant injury at 16 g/ha: 16 g ai/ha, scale 0 (no effect) to 100 (complete control), read-out: Plant response rating, Barley, Spring; for plant injury at 31 g/ha: 31 g ai/ha; for plant injury at 62 g/ha: 62 g ai/ha; for plant injury at 125 g/ha: 125 g ai/ha
Procedure, shortened: as §1

winter barley = experiment: Test D preemergence; type: in vivo, Hordeum vulgare; conditions: Hordeum vulgare, pre-emergence; for plant injury at 16 g/ha: 16 g ai/ha, scale 0 (no effect) to 100 (complete control), read-out: Plant response rating, Barley, Winter; for plant injury at 31 g/ha: 31 g ai/ha; for plant injury at 62 g/ha: 62 g ai/ha; for plant injury at 125 g/ha: 125 g ai/ha
Procedure, shortened: as §1

wild oat = experiment: Test D preemergence; type: in vivo, Avena fatua; conditions: Avena fatua, pre-emergence; for pest or weed control at 16 g/ha: 16 g ai/ha, scale 0 (no effect) to 100 (complete control), read-out: Plant response rating, Oat, Wild; for pest or weed control at 31 g/ha: 31 g ai/ha; for pest or weed control at 62 g/ha: 62 g ai/ha; for pest or weed control at 125 g/ha: 125 g ai/ha
Procedure, shortened: as §1

wild radish [1] = experiment: Test D preemergence; type: in vivo, Raphanus raphanistrum; conditions: Raphanus raphanistrum, pre-emergence; for pest or weed control at 16 g/ha: 16 g ai/ha; for pest or weed control at 16 g/ha / pest or weed control at 31 g/ha: scale 0 (no effect) to 100 (complete control), read-out: Plant response rating, Radish, Wild; for pest or weed control at 31 g/ha: 31 g ai/ha; for pest or weed control at 62 g/ha: 62 g ai/ha; for pest or weed control at 125 g/ha: 125 g ai/ha
Procedure, shortened: as §1

field poppy = experiment: Test D postemergence; type: in vivo, Papaver rhoeas; conditions: Papaver rhoeas, post-emergence; for pest or weed control at 16 g/ha: 16 g ai/ha, scale 0-100, read-out: Plant response rating, Field Poppy; for pest or weed control at 31 g/ha: 31 g ai/ha; for pest or weed control at 62 g/ha: 62 g ai/ha; for pest or weed control at 125 g/ha: 125 g ai/ha
Procedure, shortened: as §1

wild radish [2] = experiment: Test D postemergence; type: in vivo, Raphanus raphanistrum; conditions: Raphanus raphanistrum, post-emergence; for pest or weed control at 16 g/ha: 16 g ai/ha, scale 0-100, read-out: Plant response rating, Radish, Wild; for pest or weed control at 31 g/ha: 31 g ai/ha; for pest or weed control at 62 g/ha: 62 g ai/ha; for pest or weed control at 125 g/ha: 125 g ai/ha
Procedure, shortened: as §1

windgrass = experiment: Test D postemergence; type: in vivo, Apera spica-venti; conditions: Apera spica-venti, post-emergence; for pest or weed control at 16 g/ha: 16 g ai/ha, scale 0-100, read-out: Plant response rating, Windgrass; for pest or weed control at 31 g/ha: 31 g ai/ha; for pest or weed control at 62 g/ha: 62 g ai/ha; for pest or weed control at 125 g/ha: 125 g ai/ha
Procedure, shortened: as §1

[3] = scale 0-100, read-out: Plant response rating, Blackgrass
[4] = scale 0-100, read-out: Plant response rating, Chickweed
[5] = scale 0-100, read-out: Plant response rating, Bromegrass, Downy
[6] = scale 0-100, read-out: Plant response rating, Ryegrass, Italian
[7] = scale 0-100, read-out: Plant response rating, Barley, Spring
[8] = scale 0-100, read-out: Plant response rating, Barley, Winter
[9] = scale 0-100, read-out: Plant response rating, Oat, Wild
[10] = scale 0-100, read-out: Plant response rating, Radish, Wild
[11] = scale 0 to 100 (0 no effect, 100 complete control), read-out: Plant response rating, Field Poppy
[12] = scale 0 to 100 (0 no effect, 100 complete control), read-out: Plant response rating, Radish, Wild
[13] = scale 0 to 100 (0 no effect, 100 complete control), read-out: Plant response rating, Windgrass

## FC(F)(F)c1cnn(-c2ccccc2Oc2ncc(Br)cn2)c1 [Compound 18, 5-bromo-2-[2-[4-(trifluoromethyl)-1H-pyrazol-1-yl]phenoxy]pyrimidine]
blackgrass
  pest or weed control at 16 g/ha: 0%
blackgrass; [3]
  pest or weed control at 31 g/ha: 5%
  pest or weed control at 62 g/ha: 50%
  pest or weed control at 125 g/ha: 100%
blackgrass; 250 g ai/ha, scale 0-100, read-out: Plant response rating, Blackgrass
  pest or weed control at 250 g/ha: 100%
chickweed; [4]
  pest or weed control at 125 g/ha: 90%
chickweed; 250 g ai/ha, scale 0-100, read-out: Plant response rating, Chickweed
  pest or weed control at 250 g/ha: 100%
bromegrass, downy
  pest or weed control at 16 g/ha: 0%
bromegrass, downy; [5]
  pest or weed control at 31 g/ha: 0%
  pest or weed control at 62 g/ha: 5%
  pest or weed control at 125 g/ha: 10%
bromegrass, downy; 250 g ai/ha, scale 0-100, read-out: Plant response rating, Bromegrass, Downy
  pest or weed control at 250 g/ha: 50%
Italian ryegrass
  pest or weed control at 16 g/ha: 10%
  pest or weed control at 31 g/ha: 10%
Italian ryegrass; [6]
  pest or weed control at 62 g/ha: 20%
  pest or weed control at 125 g/ha: 25%
Italian ryegrass; 250 g ai/ha, scale 0-100, read-out: Plant response rating, Ryegrass, Italian
  pest or weed control at 250 g/ha: 50%
Spring barley
  plant injury at 16 g/ha: 0%
Spring barley; [7]
  plant injury at 31 g/ha: 5%
  plant injury at 62 g/ha: 5%
  plant injury at 125 g/ha: 0%
Spring barley; 250 g ai/ha, scale 0-100, read-out: Plant response rating, Barley, Spring
  plant injury at 250 g/ha: 30%
Winter barley
  plant injury at 16 g/ha: 0%
Winter barley; [8]
  plant injury at 31 g/ha: 10%
  plant injury at 62 g/ha: 15%
  plant injury at 125 g/ha: 15%
Winter barley; 250 g ai/ha, scale 0-100, read-out: Plant response rating, Barley, Winter
  plant injury at 250 g/ha: 25%
Wild oat
  pest or weed control at 16 g/ha: 0%
Wild oat; [9]
  pest or weed control at 31 g/ha: 0%
  pest or weed control at 62 g/ha: 0%
  pest or weed control at 125 g/ha: 5%
Wild oat; 250 g ai/ha, scale 0-100, read-out: Plant response rating, Oat, Wild
  pest or weed control at 250 g/ha: 30%
Wild radish [1]
  pest or weed control at 16 g/ha: 100%
  pest or weed control at 31 g/ha: 100%
Wild radish [1]; [10]
  pest or weed control at 62 g/ha: 100%
  pest or weed control at 125 g/ha: 100%
Wild radish [1]; 250 g ai/ha, scale 0-100, read-out: Plant response rating, Radish, Wild
  pest or weed control at 250 g/ha: 100%
Field poppy
  pest or weed control at 16 g/ha: 80%
Field poppy; [11]
  pest or weed control at 31 g/ha: 75%
  pest or weed control at 62 g/ha: 75%
  pest or weed control at 125 g/ha: 100%
Field poppy; 250 g ai/ha, scale 0 to 100 (0 no effect, 100 complete control), read-out: Plant response rating, Field Poppy
  pest or weed control at 250 g/ha: 100%
Wild radish [2]
  pest or weed control at 16 g/ha: 95%
Wild radish [2]; [12]
  pest or weed control at 31 g/ha: 90%
  pest or weed control at 62 g/ha: 100%
  pest or weed control at 125 g/ha: 100%
Wild radish [2]; 250 g ai/ha, scale 0 to 100 (0 no effect, 100 complete control), read-out: Plant response rating, Radish, Wild
  pest or weed control at 250 g/ha: 100%
windgrass
  pest or weed control at 16 g/ha: 5%
windgrass; [13]
  pest or weed control at 31 g/ha: 10%
  pest or weed control at 62 g/ha: 10%
  pest or weed control at 125 g/ha: 10%
windgrass; 250 g ai/ha, scale 0 to 100 (0 no effect, 100 complete control), read-out: Plant response rating, Windgrass
  pest or weed control at 250 g/ha: 10%

## FC(F)(F)COc1cnn(-c2ccccc2Oc2ncc(Cl)cn2)c1 [Compound 138, 5-chloro-2-[2-[4-(2,2,2-trifluoroethoxy)-1H-pyrazol-1-yl]phenoxy]pyrimidine]
blackgrass
  pest or weed control at 16 g/ha: 0%
blackgrass; [3]
  pest or weed control at 31 g/ha: 0%
  pest or weed control at 62 g/ha: 25%
  pest or weed control at 125 g/ha: 30%
chickweed; 16 g ai/ha, scale 0 (no effect) to 100 (complete control), read-out: Plant response rating, Chickweed
  pest or weed control at 16 g/ha: 100%
chickweed; 31 g ai/ha, scale 0-100, read-out: Plant response rating, Chickweed
  pest or weed control at 31 g/ha: 100%
chickweed; 62 g ai/ha, scale 0-100, read-out: Plant response rating, Chickweed
  pest or weed control at 62 g/ha: 100%
chickweed; [4]
  pest or weed control at 125 g/ha: 100%
bromegrass, downy
  pest or weed control at 16 g/ha: 0%
bromegrass, downy; [5]
  pest or weed control at 31 g/ha: 0%
  pest or weed control at 62 g/ha: 0%
  pest or weed control at 125 g/ha: 10%
Italian ryegrass
  pest or weed control at 16 g/ha: 0%
  pest or weed control at 31 g/ha: 0%
Italian ryegrass; [6]
  pest or weed control at 62 g/ha: 0%
  pest or weed control at 125 g/ha: 10%
Spring barley
  plant injury at 16 g/ha: 10%
Spring barley; [7]
  plant injury at 31 g/ha: 10%
  plant injury at 62 g/ha: 10%
  plant injury at 125 g/ha: 15%
Winter barley
  plant injury at 16 g/ha: 0%
Winter barley; [8]
  plant injury at 31 g/ha: 0%
  plant injury at 62 g/ha: 5%
  plant injury at 125 g/ha: 15%
Wild oat
  pest or weed control at 16 g/ha: 0%
Wild oat; [9]
  pest or weed control at 31 g/ha: 0%
  pest or weed control at 62 g/ha: 0%
  pest or weed control at 125 g/ha: 0%
Wild radish [1]
  pest or weed control at 16 g/ha: 90%
  pest or weed control at 31 g/ha: 85%
Wild radish [1]; [10]
  pest or weed control at 62 g/ha: 70%
  pest or weed control at 125 g/ha: 85%
Field poppy
  pest or weed control at 16 g/ha: 30%
Field poppy; [11]
  pest or weed control at 31 g/ha: 35%
  pest or weed control at 62 g/ha: 40%
  pest or weed control at 125 g/ha: 75%
Wild radish [2]
  pest or weed control at 16 g/ha: 60%
Wild radish [2]; [12]
  pest or weed control at 31 g/ha: 65%
  pest or weed control at 62 g/ha: 80%
  pest or weed control at 125 g/ha: 90%
windgrass
  pest or weed control at 16 g/ha: 0%
windgrass; [13]
  pest or weed control at 31 g/ha: 0%
  pest or weed control at 62 g/ha: 15%
  pest or weed control at 125 g/ha: 20%
